The values that follow come from ChEMBL document CHEMBL3046784, “Exploring QSAR of antiamoebic agents of isolated natural products by MLR, ANN, and RTO” (Med Chem Res, 2012).

This experiment relates to Entamoeba histolytica. As to the kind of experiment: Antiamoebic activity against Entamoeba histolytica. The class given is functional, organism-based. The conditions noted are these: Entamoeba histolytica; read-out: IC50.

In brackets after ≈: the same amount, converted by molar mass.

For `COC(=O)C1=CO[C@H](O[C@@H]2O[C@H](CO)[C@@H](O)[C@H](O)[C@H]2O)[C@H]2[C@@H]1[C@@H]1O[C@@H]1[C@@]21C=C(C(O)c2ccc(O)cc2)C(=O)O1` (stereo not given in full) [EPOXYGAERTNEROSIDE], the IC50 (in general, the concentration that gives 50% inhibition) was 1.3 µg/mL (≈ 2.3 µM).

In the case of `COc1ccc2cc1Oc1ccc(cc1)C[C@H]1c3cc(c(OC)cc3CCN1C)Oc1c(O)c(OC)cc3c1[C@H](C2)N(C)CC3` [FANGCHINOLINE], the IC50 was determined as 14.7 µg/mL (≈ 24.2 µM).

For `O=c1c(O)c(-c2ccc(O)c(O)c2)oc2cc(O)ccc12` [FISETIN], the IC50 came out at 189 µg/mL (≈ 660 µM).

For `COc1cc2c3cc1Oc1c(OC)c(OC)cc4c1[C@H](Cc1ccc(O)c(c1)-c1cc(ccc1OC)C[C@H]3N(C)CC2)N(C)CC4` [FUNIFERINE], the half-inhibitory concentration (IC50) was determined as 28.3 µg/mL (≈ 45.4 µM).

In the case of `O=C(O)C1=CO[C@H](O[C@@H]2O[C@H](CO)[C@@H](O)[C@H](O)[C@H]2O)[C@H]2[C@@H]1C=C[C@@]21C=C(C(O)c2ccc(O)cc2)C(=O)O1` (stereo not given in full) [GAERTNERIC ACID], the IC50 came to 7.1 µg/mL (≈ 13.3 µM).

Turning to `COC(=O)C1=CO[C@H](O[C@@H]2O[C@H](CO)[C@@H](O)[C@H](O)[C@H]2O)[C@H]2[C@@H]1C=C[C@@]21C=C(C(O)c2ccc(O)cc2)C(=O)O1` (stereo not given in full) [GAERTNEROSIDE], the IC50 is 4.3 µg/mL (≈ 7.84 µM).

For `O=c1c(O)c(-c2ccccc2)oc2cc(O)cc(O)c12` [GALANGIN], the IC50 came out at 159 µg/mL (≈ 587 µM).

Regarding `COC(=O)c1cc(O)c(O)c(O)c1` [GALLIC ACID METHYL ESTER], the IC50 is 22.6 µg/mL (≈ 123 µM).

With `O=c1cc(-c2ccc(O)c(O)c2)oc2cc(O[C@@H]3O[C@H](CO)[C@@H](O)[C@H](O)[C@H]3O)cc(O)c12` [GALUTEOLIN], the IC50 is 44.7 µg/mL (≈ 99.7 µM).

With `Oc1ccc([C@]23Oc4cc(O)cc(O)c4[C@H](c4c(cc(O)c5c4O[C@H](c4cc(O)c(O)c(O)c4)[C@@H](O)C5)O2)[C@H]3O)cc1` [GERANIN C], the IC50 was found to be 52 µg/mL (≈ 90.2 µM).

Regarding `Oc1ccc([C@H]2Oc3c(c(O)cc4c3[C@H]3c5c(O)cc6c(c5O[C@@](c5ccc(O)cc5)(O4)[C@@H]3O)[C@H]3c4c(O)cc(O)cc4O[C@@](c4ccc(O)cc4)(O6)[C@H]3O)C[C@@H]2O)cc1` [GERANIN D], the IC50 was determined as 28.6 µg/mL (≈ 35.1 µM).

In the case of `CC[C@](C)(O)C(=O)O[C@H]1C(=O)O[C@@H]2C[C@H]3C(C)=CC(=O)[C@@H](O)[C@]3(C)[C@H]3[C@@]4(O)OC[C@]32[C@@H]1[C@@H](C)[C@H]4O` [GLAUCARUBINONE], the IC50 amounted to 0.168 µg/mL (≈ 0.34 µM).

In the case of `CC[C@](C)(O)C(=O)O[C@H]1C(=O)O[C@@H]2C[C@H]3C(C)=C[C@H](O)[C@@H](O)[C@]3(C)[C@H]3[C@]4(O)OC[C@]32[C@@H]1[C@@H](C)[C@H]4O` [GLAUCARUBIN], the IC50 was 1.57 µg/mL (≈ 3.16 µM).

Consider `CC1=CC(=O)[C@@H](O)[C@]2(C)[C@H]3[C@]4(O)OC[C@]35[C@H]([C@@H](C)[C@H]4O)[C@@H](O)C(=O)O[C@@H]5C[C@@H]12` [GLAUCARUBOLONE], for which the IC50 is 0.12 µg/mL (≈ 0.304 µM).

With `CC1=C[C@H](O)[C@@H](O)[C@]2(C)[C@H]3[C@@]4(O)OC[C@]35[C@H]([C@@H](C)[C@H]4O)[C@@H](O)C(=O)O[C@@H]5C[C@@H]12` [GLAUCARUBOL], the IC50 was 2 µg/mL (≈ 5.04 µM).

Turning to `Cc1cc2c(C(C)C)c(O)c(O)c(C=O)c2c(O)c1-c1c(C)cc2c(C(C)C)c(O)c(O)c(C=O)c2c1O` [GOSSYPOL], the IC50 was found to be 0.00777 µg/mL (≈ 0.015 µM).

As to `CC(=O)O[C@H]1C(=O)O[C@@H]2C[C@H]3C(C)=CC(=O)[C@@H](O)[C@]3(C)[C@H]3[C@]4(O)OC[C@]32[C@@H]1[C@@H](C)[C@H]4O` [HOLACANTHONE], the IC50 turned out to be 0.162 µg/mL (≈ 0.371 µM).

For `C[C@@H]1N=C[C@]23C[C@@H](O)[C@H]4[C@@H](CCC5=CC(=O)C=C[C@@]54C)[C@@H]2CC[C@H]13` [HOLANAMINE], the IC50 was 3.96 µg/mL (≈ 12.2 µM).

As for `C/C=C1/CN(C)CC[C@]23C(=O)C[C@@H]1[C@H]1CO[C@H](O)C(=O)N(c4ccccc42)[C@@H]13` [HOLSTIINE], the IC50 is 24.8 µg/mL (≈ 64.9 µM).

For the molecule `C/C=C1\CN(C)CC[C@]23C(=O)C[C@@H]1[C@H]1CO[C@H](OC)C(=O)N(c4ccccc42)[C@@H]13` [HOLSTILINE], the IC50 was 24.9 µg/mL (≈ 62.9 µM).
